{"source": "patent US9416129B2", "about": "“Tricyclic substituted thiadiazine dioxide compounds as BACE inhibitors, compositions and their use” (Merck Sharp & Dohme Corp., priority 2012, dated 2016)", "key": {"[1]": {"target": "soluble human BACE1 catalytic domain (Homo sapiens (Human), UniProt P56817)", "sequence (P56817 75-416)": "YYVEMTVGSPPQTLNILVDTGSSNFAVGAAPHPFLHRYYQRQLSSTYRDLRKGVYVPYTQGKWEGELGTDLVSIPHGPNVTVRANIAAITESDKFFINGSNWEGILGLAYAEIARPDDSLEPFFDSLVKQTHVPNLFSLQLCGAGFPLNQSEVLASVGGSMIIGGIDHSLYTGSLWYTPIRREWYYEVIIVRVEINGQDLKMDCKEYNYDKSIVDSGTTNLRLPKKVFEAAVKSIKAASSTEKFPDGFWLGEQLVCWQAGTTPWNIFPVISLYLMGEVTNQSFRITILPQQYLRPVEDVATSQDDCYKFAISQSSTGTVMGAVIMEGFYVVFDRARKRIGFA", "assay": "BACE1 HTRF FRET assay", "format": "biochemical", "details": "for Ki: Ki calculated from IC50 using the Cheng-Prusoff equation", "text": "Na^+-Acetate pH 5.0; 1% Brij-35; Glycerol; Dimethyl Sulfoxide (DMSO); Recombinant human soluble BACE1 catalytic domain (>95% pure); APP Swedish mutant peptide substrate (QSY7-APP^swe-Eu): QSY7-[…]-Europium-amide.\nA homogeneous time-resolved FRET assay can be used to determine IC50 values for inhibitors of the soluble human BACE1 catalytic domain. This assay monitors the increase of 620 nm fluorescence that resulted from BACE1 cleavage of an APPswedish APP^swe mutant peptide FRET substrate (QSY7-[…]-Europium-amide). This substrate contains an N-terminal QSY7 moiety that serves as a quencher of the C-terminal Europium fluorophore (620 nm Em). In the absence of enzyme activity, 620 nm fluorescence is low in the assay and increased linearly over 3 hours in the presence of uninhibited BACE1 enzyme Inhibition of BACE1 cleavage of the QSY7-APP^swe-Eu substrate by inhibitors is manifested as a suppression of 620 nm fluorescence.\nVarying concentrations of inhibitors at 3× the final desired concentration in a volume of 10 ul are preincubated with purified human BACE1 catalytic domain (3 nM in 10 μl) for 30 minutes at 30° C. in reaction buffer containing 20 mM Na-Acetate pH 5.0, 10% glycerol, 0.1% Brij-35 and 7.5% DSMO. Reactions are initiated by addition of 10 μl of 600 nM QSY7-APP^swe-Eu substrate (200 nM final) to give a final reaction volume of […] in a 384 well Nunc HTRF plate. The reactions are incubated at 30° C. for 1.5 hours. The 620 nm fluorescence is then read on a Rubystar HTRF plate reader (BMG Labtechnologies) using a 50 millisecond delay followed by a 400 millisecond acquisition time window. Inhibitor IC50 values are derived from non-linear regression analysis of concentration response curves."}, "human autoBACE-2": {"target": "human autoBACE-2 (Homo sapiens (Human), UniProt Q9Y5Z0)", "sequence (Q9Y5Z0 63-473 limits assumed)": "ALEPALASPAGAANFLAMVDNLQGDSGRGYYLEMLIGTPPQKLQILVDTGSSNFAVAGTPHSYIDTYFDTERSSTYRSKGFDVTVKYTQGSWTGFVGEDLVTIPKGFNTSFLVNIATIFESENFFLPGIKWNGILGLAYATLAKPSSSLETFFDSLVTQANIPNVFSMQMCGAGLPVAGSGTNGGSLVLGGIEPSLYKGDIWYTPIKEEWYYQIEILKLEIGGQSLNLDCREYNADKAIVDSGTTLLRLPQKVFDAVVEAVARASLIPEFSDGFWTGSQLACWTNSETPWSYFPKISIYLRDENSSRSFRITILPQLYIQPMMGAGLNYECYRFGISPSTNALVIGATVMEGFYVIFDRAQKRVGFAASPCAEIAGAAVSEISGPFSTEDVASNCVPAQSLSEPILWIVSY", "assay": "BACE-2 assay (BACE-HTRF, time-resolved endpoint proteolysis)", "format": "biochemical", "details": "Ki calculated from IC50 using the Cheng-Prusoff equation; read-out: BACE2 Ki", "method": "Inhibitor IC50s at purified human autoBACE-2 are determined in a time-resolved endpoint proteolysis assay that measures hydrolysis of the QSY7-[…]-Eu-amide FRET peptide substrate (BACE-HTRF assay). […] DMSO is present at 5% final concentration in the assay. Following laser excitation of sample wells at 320 nm, the fluorescence signal at 620 nm is collected for 400 ms following a 50 μs delay on a RUBYstar HTRF plate reader (BMG Labtechnologies). Raw RFU data is normalized to maximum (1.0 nM BACE/DMSO) and minimum (no enzyme/DMSO) RFU values. […] The Ki values are calculated from the IC50 using the Cheng-Prusoff equation."}, "human P-glycoprotein": {"target": "human P-glycoprotein (Homo sapiens (Human), UniProt P08183)", "sequence (P08183 whole entry)": "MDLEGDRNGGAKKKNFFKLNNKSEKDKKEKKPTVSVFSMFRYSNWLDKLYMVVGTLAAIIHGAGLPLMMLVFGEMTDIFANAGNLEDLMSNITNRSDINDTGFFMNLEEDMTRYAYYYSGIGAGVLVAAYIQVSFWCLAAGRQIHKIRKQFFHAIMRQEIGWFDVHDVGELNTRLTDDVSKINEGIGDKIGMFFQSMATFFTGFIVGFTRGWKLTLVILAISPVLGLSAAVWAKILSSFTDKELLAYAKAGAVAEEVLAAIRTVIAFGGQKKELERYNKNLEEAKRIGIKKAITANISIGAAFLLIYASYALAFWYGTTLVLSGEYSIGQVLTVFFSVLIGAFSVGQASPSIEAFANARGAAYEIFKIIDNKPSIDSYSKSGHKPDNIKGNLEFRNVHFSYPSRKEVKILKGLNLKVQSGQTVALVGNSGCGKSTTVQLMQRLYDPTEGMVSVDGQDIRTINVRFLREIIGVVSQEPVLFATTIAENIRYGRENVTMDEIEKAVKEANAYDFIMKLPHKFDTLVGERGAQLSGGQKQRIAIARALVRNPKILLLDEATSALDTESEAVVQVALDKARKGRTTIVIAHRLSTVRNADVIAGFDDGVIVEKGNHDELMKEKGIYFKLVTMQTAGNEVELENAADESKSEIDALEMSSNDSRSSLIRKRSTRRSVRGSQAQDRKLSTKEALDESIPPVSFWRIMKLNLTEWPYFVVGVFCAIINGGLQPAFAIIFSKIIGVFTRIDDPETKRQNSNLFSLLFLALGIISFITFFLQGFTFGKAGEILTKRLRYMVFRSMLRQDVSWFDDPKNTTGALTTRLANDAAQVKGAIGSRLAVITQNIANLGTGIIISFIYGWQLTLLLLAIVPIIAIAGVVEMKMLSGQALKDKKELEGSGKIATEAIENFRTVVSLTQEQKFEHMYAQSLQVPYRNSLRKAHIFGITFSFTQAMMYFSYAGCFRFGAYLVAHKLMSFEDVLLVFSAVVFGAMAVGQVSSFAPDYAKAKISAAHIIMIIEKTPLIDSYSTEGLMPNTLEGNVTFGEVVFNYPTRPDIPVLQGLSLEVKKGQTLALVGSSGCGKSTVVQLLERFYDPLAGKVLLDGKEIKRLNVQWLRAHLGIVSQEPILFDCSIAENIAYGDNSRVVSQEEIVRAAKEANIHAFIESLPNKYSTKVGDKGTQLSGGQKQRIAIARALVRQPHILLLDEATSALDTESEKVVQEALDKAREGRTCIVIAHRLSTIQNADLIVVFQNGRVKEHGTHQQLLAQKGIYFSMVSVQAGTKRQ", "assay": "Pgp Mdr1 efflux ratio", "format": "in vitro ADME", "details": "for Pgp Mdr1 ER: efflux ratio, human P-glycoprotein"}, "Cathepsin-D": {"target": "Cathepsin-D (Homo sapiens (Human), UniProt P07339)", "sequence (P07339 65-412, species assumed)": "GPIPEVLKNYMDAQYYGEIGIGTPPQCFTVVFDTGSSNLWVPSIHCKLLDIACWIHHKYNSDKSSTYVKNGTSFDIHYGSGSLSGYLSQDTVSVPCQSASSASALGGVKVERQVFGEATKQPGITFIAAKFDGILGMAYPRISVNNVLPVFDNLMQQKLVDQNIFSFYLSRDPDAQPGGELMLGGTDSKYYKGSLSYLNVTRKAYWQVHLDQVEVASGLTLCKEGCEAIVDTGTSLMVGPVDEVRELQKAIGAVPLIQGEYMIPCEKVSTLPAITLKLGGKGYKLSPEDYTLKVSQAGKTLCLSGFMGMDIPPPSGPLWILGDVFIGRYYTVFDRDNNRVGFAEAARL", "assay": "Cathepsin-D inhibition (selectivity)", "format": "biochemical"}}}
{"smiles": "CN1C(=N)N[C@](C)(c2sc(-c3cccc(-c4ncco4)c3)cc2F)CS1(=O)=O", "note": "[Example 7]", "values": [{"measurement": "Ki", "setting": "[1]", "value": 8.7, "unit": "nM"}, {"measurement": "Ki", "setting": "human autoBACE-2", "value": 0.73, "unit": "nM"}, {"measurement": "Pgp Mdr1 ER", "setting": "human P-glycoprotein", "value": 1.7}]}
{"smiles": "CN1C(=N)N[C@](C)(c2sc(-c3cccc(-c4cnco4)c3)cc2Cl)CS1(=O)=O", "note": "[Example 11]", "values": [{"measurement": "Ki", "setting": "[1]", "value": 1.7, "unit": "nM"}, {"measurement": "Ki", "setting": "human autoBACE-2", "value": 2, "unit": "nM"}, {"measurement": "Pgp Mdr1 ER", "setting": "human P-glycoprotein", "value": 1.3}]}
{"smiles": "CN1C(=N)N[C@](C)(c2sc(-c3cccc(-c4cnco4)c3)cc2F)CS1(=O)=O", "note": "[Example 12]", "values": [{"measurement": "Ki", "setting": "[1]", "value": 3.3, "unit": "nM"}, {"measurement": "Ki", "setting": "human autoBACE-2", "value": 3.7, "unit": "nM"}, {"measurement": "Pgp Mdr1 ER", "setting": "human P-glycoprotein", "value": 1.8}]}
{"smiles": "CN1C(=N)N[C@](C)(c2sc(-c3cccc(-c4ccno4)c3)cc2F)CS1(=O)=O", "note": "[Example 14]", "values": [{"measurement": "Ki", "setting": "[1]", "value": 6.9, "unit": "nM"}, {"measurement": "Ki", "setting": "human autoBACE-2", "value": 3.5, "unit": "nM"}, {"measurement": "Pgp Mdr1 ER", "setting": "human P-glycoprotein", "value": 1.6}]}
{"smiles": "CN1C(=N)N[C@](C)(c2sc(-c3cccc(-c4nnc(C5CC5)o4)c3)cc2Cl)CS1(=O)=O", "note": "[Example 17]", "values": [{"measurement": "Ki", "setting": "[1]", "value": 203, "unit": "nM"}, {"measurement": "Ki", "setting": "human autoBACE-2", "value": 2.2, "unit": "nM"}, {"measurement": "Pgp Mdr1 ER", "setting": "human P-glycoprotein", "value": 1.0}]}
{"smiles": "CN1C(=N)N[C@](C)(c2sc(-c3cccc(-c4nnc(C5CC5)o4)c3)cc2F)CS1(=O)=O", "note": "[Example 18]", "values": [{"measurement": "Ki", "setting": "[1]", "value": 177, "unit": "nM"}, {"measurement": "Ki", "setting": "human autoBACE-2", "value": 4.2, "unit": "nM"}, {"measurement": "Pgp Mdr1 ER", "setting": "human P-glycoprotein", "value": 0.53}]}
{"smiles": "CN1C(=N)N[C@](C)(c2sc(-c3cc(F)cc(-c4cnco4)c3)cc2Cl)CS1(=O)=O", "note": "[Example 23]", "values": [{"measurement": "Ki", "setting": "[1]", "value": 11.4, "unit": "nM"}, {"measurement": "Ki", "setting": "human autoBACE-2", "value": 4.8, "unit": "nM"}, {"measurement": "Pgp Mdr1 ER", "setting": "human P-glycoprotein", "value": 0.90}]}
{"smiles": "CN1C(=N)N[C@](C)(c2sc(-c3cc(F)cc(-c4cnco4)c3)cc2F)CS1(=O)=O", "note": "[Example 25]", "values": [{"measurement": "Ki", "setting": "[1]", "value": 12.5, "unit": "nM"}, {"measurement": "Ki", "setting": "human autoBACE-2", "value": 4.8, "unit": "nM"}, {"measurement": "Pgp Mdr1 ER", "setting": "human P-glycoprotein", "value": 1.1}]}
{"smiles": "Cc1noc(-c2cccc(-c3cc(F)c([C@]4(C)CS(=O)(=O)N(C)C(=N)N4)s3)c2)n1", "note": "[Example 38]", "values": [{"measurement": "Ki", "setting": "[1]", "value": 29.1, "unit": "nM"}, {"measurement": "Ki", "setting": "human autoBACE-2", "value": 3.6, "unit": "nM"}, {"measurement": "Pgp Mdr1 ER", "setting": "human P-glycoprotein", "value": 1.7}]}
{"smiles": "Cc1nc(-c2cccc(-c3cc(Cl)c([C@]4(C)CS(=O)(=O)N(C)C(=N)N4)s3)c2)no1", "note": "[Example 41]", "values": [{"measurement": "Ki", "setting": "[1]", "value": 13.4, "unit": "nM"}, {"measurement": "Ki", "setting": "human autoBACE-2", "value": 0.35, "unit": "nM"}, {"measurement": "Pgp Mdr1 ER", "setting": "human P-glycoprotein", "value": 0.34}]}
{"smiles": "Cc1nc(-c2cccc(-c3cc(F)c([C@]4(C)CS(=O)(=O)N(C)C(=N)N4)s3)c2)no1", "note": "[Example 42]", "values": [{"measurement": "Ki", "setting": "[1]", "value": 25.4, "unit": "nM"}, {"measurement": "Ki", "setting": "human autoBACE-2", "value": 1.1, "unit": "nM"}, {"measurement": "Pgp Mdr1 ER", "setting": "human P-glycoprotein", "value": 1.2}]}
{"smiles": "CN1C(=N)N[C@](C)(c2sc(-c3cccc(-c4ncon4)c3)cc2Cl)CS1(=O)=O", "note": "[Example 46]", "values": [{"measurement": "Ki", "setting": "[1]", "value": 3.3, "unit": "nM"}, {"measurement": "Ki", "setting": "human autoBACE-2", "value": 0.41, "unit": "nM"}, {"measurement": "Pgp Mdr1 ER", "setting": "human P-glycoprotein", "value": 0.70}]}
{"smiles": "CN1C(=N)N[C@](C)(c2sc(-c3cccc(-c4ncon4)c3)cc2F)CS1(=O)=O", "note": "[Example 47]", "values": [{"measurement": "Ki", "setting": "[1]", "value": 3.9, "unit": "nM"}, {"measurement": "Ki", "setting": "human autoBACE-2", "value": 0.34, "unit": "nM"}, {"measurement": "Pgp Mdr1 ER", "setting": "human P-glycoprotein", "value": 1.7}]}
{"smiles": "CN1C(=N)N[C@](C)(c2sc3c(-c4ccc(-n5cccn5)nc4)nccc3c2Cl)CS1(=O)=O", "note": "[Example 80]", "values": [{"measurement": "BACE potency (in words)", "setting": "[1]", "value": "good BACE potency"}, {"measurement": "Ki", "setting": "[1]", "value": 10, "unit": "nM"}, {"measurement": "Ki", "setting": "human autoBACE-2", "value": 16, "unit": "nM"}, {"measurement": "Pgp susceptibility (in words)", "setting": "human P-glycoprotein", "value": "low Pgp susceptibility"}, {"measurement": "Pgp Mdr1 ER", "setting": "human P-glycoprotein", "value": 0.78}, {"measurement": "Ki", "setting": "Cathepsin-D; read-out: Cath-D Ki", "value": 6970, "unit": "nM"}, {"measurement": "Cathepsin-D selectivity (in words)", "setting": "Cathepsin-D; selectivity for BACE over Cathepsin-D", "value": "good Cathepsin-D selectivity"}]}
